In US7384965B2, “Fused heterocyclic derivatives as PPAR modulators” (Eli Lilly and Company, priority 2003, dated 2008):

Row | melting point | SMILES
1 | 174 to 176 °C | Cc1cc(OCc2ccc3sc(-c4ccc(C(F)(F)F)cc4)nc3c2)ccc1CCC(=O)O [Example 54, 3-{2-Methyl-4-[2-(4-trifluoromethylphenyl)benzothiazol-5-ylmethoxy]phenyl}propionic Acid]
2 | 176 to 177 °C | Cc1cc(SCc2ccc3nc(-c4ccc(C(F)(F)F)cc4)sc3c2)ccc1OCC(=O)O [Example 57, 2-Methyl-4-[2-(4-trifluoromethylphenyl)benzothiazol-6-ylmethylsulfanyl]phenoxyacetic Acid]
3 | 172 to 174 °C | Cc1cc(SCc2cccc3nc(-c4ccc(C(F)(F)F)cc4)oc23)ccc1OCC(=O)O [Example 74, 2-Methyl-4-[2-(4-trifluoromethylphenyl)benzooxazol-7-ylmethylsulfanyl]phenoxyacetic Acid]
4 | 82 to 85 °C | Cc1cc(SCc2ccnc3sc(-c4ccc(C(F)(F)F)cc4)nc23)ccc1OCC(=O)O [Example 100, 2-Methyl-4-[2-(4-trifluoromethylphenyl)thiazolo[5,4-b]pyridine-7-ylmethylsulfanyl]phenoxyacetic Acid]
5 | 105 to 108 °C | CCC(Sc1ccc(CCC(=O)O)c(C)c1)c1ccc2nc(-c3ccc(C(F)(F)F)cc3)sc2c1 (racemic) [Example 64, (+/−)-3-(2-Methyl-4-{1-[2-(4-trifluoromethylphenyl)benzothiazol-6-yl]propylsulfanyl}phenyl)propionic Acid]
6 | 154 to 157 °C | Cc1cc(SCc2ccnc3oc(-c4ccc(C(F)(F)F)cc4)nc23)ccc1OCC(=O)O [Example 95, 2-Methyl-4-[2-(4-trifluoromethylphenyl)oxazolo[5,4-b]pyridine-7-ylmethylsulfanyl]phenoxyacetic Acid]
7 | 141 to 143 °C | Cc1cc(SCc2ccc3sc(-c4ccc(C(F)(F)F)cc4)nc3c2)ccc1CCC(=O)O [Example 52, 3-{2-Methyl-4-[2-(4-trifluoromethylphenyl)benzothiazol-5-ylmethylsulfanyl]phenyl}propionic Acid]
8 | 160 to 164 °C | CCc1cc(SCc2cccc3nc(-c4ccc(C(F)(F)F)cc4)sc23)ccc1OCC(=O)O [Example 45, 2-Ethyl-4-[2-(4-trifluoromethylphenyl)benzothiazol-7-ylmethylsulfanyl]phenoxyacetic Acid]
9 | 159 to 161 °C | Cc1cc(SC(C)c2ccc3nc(-c4ccc(C(F)(F)F)cc4)sc3c2)ccc1CCC(=O)O (racemic) [Example 63, (+/−)-3-(2-Methyl-4-{1-[2-(4-trifluoromethylphenyl)benzothiazol-6-yl]ethylsulfanyl}phenyl)propionic Acid]
10 | 160 to 162 °C (dec.) | Cc1cc(SCc2cccc3oc(-c4ccc(C(F)(F)F)cc4)nc23)ccc1OCC(=O)O [Example 65, 2-Methyl-4-[2-(4-trifluoromethylphenyl)benzooxazol-4-ylmethylsulfanyl]-phenoxyacetic Acid]
11 | 144 to 147 °C | CCc1cc(SCc2ccc3nc(-c4ccc(C(F)(F)F)cc4)sc3c2)ccc1OCC(=O)O [Example 59, 2-Ethyl-4-[2-(4-trifluoromethylphenyl)benzothiazol-6-ylmethylsulfanyl]phenoxyacetic Acid]
12 | 170 to 173 °C | Cc1cc(SC(C)c2ccc3nc(-c4ccc(C(F)(F)F)cc4)sc3c2)ccc1OCC(=O)O (racemic) [Example 62, (+/−)-2-Methyl-4-{1-[2-(4-trifluoromethylphenyl)benzothiazol-6-yl]ethylsulfanyl}phenoxyacetic Acid]

More lines, now with the values behind:

Row | SMILES | melting point
13 | O=C(O)Cc1cccc(SCc2cccc3sc(-c4ccc(C(F)(F)F)cc4)nc23)c1 [Example 41] | 140 to 143 °C
14 | O=C(O)Cc1cccc(SCc2cccc3nc(-c4ccc(C(F)(F)F)cc4)oc23)c1 [Example 73, 3-[2-(4-Trifluoromethylphenyl)benzooxazol-7-ylmethylsulfanyl]phenylacetic Acid] | 147 to 149 °C
15 | CC(C)(Sc1ccc2c(CC(=O)O)csc2c1)c1cccc2nc(-c3ccc(C(F)(F)F)cc3)oc12 [Example 78, 6-{1-Methyl-1-[2-(4-trifluoromethylphenyl)benzooxazol-7-yl]ethylsulfanyl}benzo[b]thiophen-3-ylacetic Acid] | 110 to 113 °C
16 | O=C(O)Cc1csc2cc(SCc3ccnc4oc(-c5ccc(C(F)(F)F)cc5)nc34)ccc12 [Example 98, 6-[2-(4-Trifluoromethylphenyl)oxazolo[5,4-b]pyridine-7-ylmethylsulfanyl]benzo[b]thiophen-3-ylacetic Acid] | 203 to 205 °C
17 | O=C(O)Cc1csc2cc(SCc3cccc4nc(-c5ccc(C(F)(F)F)cc5)oc34)ccc12 [Example 71, 6-[2-(4-Trifluoromethylphenyl)benzooxazol-7-ylmethylsulfanyl]benzo[b]thiophen-3-ylacetic Acid] | 208 to 210 °C
18 | CCc1cc(OCc2ccc3nc(-c4ccc(C(F)(F)F)cc4)sc3c2)ccc1CCC(=O)O [Example 61, 3-{2-Ethyl-4-[2-(4-trifluoromethylphenyl)benzothiazol-6-ylmethoxy]phenyl}propionic Acid] | 203 to 205 °C
19 | Cc1cc(SCc2ccnc3c2nc(-c2ccc(C(F)(F)F)cc2)n3C)ccc1CCC(=O)O [Example 108, 3-{2-Methyl-4-[3-methyl-2-(4-trifluoromethylphenyl)-3H-imidazo[4,5-b]pyridin-7-ylmethylsulfanyl]phenyl}propionic Acid] | 89 to 91 °C
20 | Cc1cc(SCc2ccnc3oc(-c4ccc(C(F)(F)F)cc4)nc23)ccc1CCC(=O)O [Example 96, 3-{2-Methyl-4-[2-(4-trifluoromethylphenyl)oxazolo[5,4-b]pyridin-7-ylmethylsulfanyl]phenyl}propionic Acid] | > 260 °C (dec.)
21 | Cc1cc(SCc2cccc3oc(-c4ccc(C(F)(F)F)cc4)nc23)ccc1CCC(=O)O [Example 66, 3-2-Methyl-4-[2-(4-trifluoromethylphenyl)benzooxazol-4-ylmethylsulfanyl]phenylpropionic Acid] | 181 to 183 °C
22 | O=C(O)Cc1csc2cc(SCc3cccc4nc(-c5ccc(C(F)(F)F)cc5)sc34)ccc12 [Example 47, 6-[2-(4-Trifluoromethylphenyl)benzothiazol-7-ylmethylsulfanyl]benzo[b]thiophen-3-ylacetic Acid] | 201 to 204 °C
23 | Cc1cc(SCc2cccc3nc(-c4ccc(C(F)(F)F)cc4)oc23)ccc1CCC(=O)O [Example 69, 3-{2-Methyl-4-[2-(4-trifluoromethylphenyl)benzooxazol-7-ylmethylsulfanyl]phenyl}propionic Acid] | 155 to 157 °C
24 | CCc1cc(SCc2ccnc3[nH]c(-c4ccc(C(F)(F)F)cc4)nc23)ccc1OCC(=O)O [Example 105, 2-Ethyl-4-[2-(4-trifluoromethylphenyl)-3H-imidazo[4,5-b]pyridin-7-ylmethylsulfanyl]phenoxyacetic Acid] | 188 to 190 °C
25 | CCc1cc(SCc2cccc3oc(-c4ccc(C(F)(F)F)cc4)nc23)ccc1OCC(=O)O [Example 67, 2-Ethyl-4-[2-(4-trifluoromethylphenyl)benzooxazol-4-ylmethylsulfanyl]phenoxyacetic Acid] | 127 to 128 °C
